Measured values published in ChEMBL document CHEMBL1201862, “PubChem BioAssay data set” (2004).
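48-hour exposure; five concentrations; linearly interpolated endpoints. GI50 marks 50% less growth.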 The source made the active and inactive calls. Rule as the data show it: active = GI50 up to about 1.1 µM and inactive = higher.

Assays:
Experiment in all cases: growth of human tumour cells (NCI), 48 h
[1] = system: SK-MEL-28
[2] = system: COLO 205
[3] = system: HCC 2998
[4] = system: OVCAR-8
[5] = system: HCT-15
[6] = system: SF-295
[7] = system: T47D
[8] = system: OVCAR-4
[9] = system: IGROV-1
[10] = system: HOP-92
[11] = system: RXF 393
[12] = system: Hs-578T
[13] = system: SF-268
[14] = system: SK-MEL-5
[15] = system: OVCAR-5
[16] = system: DU-145
[17] = system: MDA-N
[18] = system: NCI-H23
[19] = system: MDA-MB-435
[20] = system: 786-0
[21] = system: LOX IMVI
[22] = system: NCI-H522
[23] = system: UACC-257
[24] = system: UO-31
[25] = system: UACC-62
[26] = system: SK-MEL-2
[27] = system: KM12
[28] = system: RPMI-8226
[29] = system: MOLT-4
[30] = system: SF-539
[31] = system: MDA-MB-231
[32] = system: SNB-19
[33] = system: OVCAR-3
[34] = system: K562
[35] = system: HL-60
[36] = system: CAKI-1
[37] = system: NCI-H226
[38] = system: NCI/ADR-RES
[39] = system: NCI-H460
[40] = system: TK-10
[41] = system: SR
[42] = system: SNB-75
[43] = system: ACHN
[44] = system: SW-620
[45] = system: EKVX
[46] = system: HOP-62
[47] = system: SK-OV-3
[48] = system: HCT-116
[49] = system: PC-3
[50] = system: SN12C
[51] = system: HT-29
[52] = system: MCF7
[53] = system: U-251
[54] = system: CCRF-CEM
[55] = system: A549
[56] = system: M14
[57] = system: Malme-3M

## COc1cc(NCc2ccc3oc(=O)c(-c4ccccc4)nc3c2)cc(OC)c1OC
[1]
  GI50: > 10 µM (inactive)
[2]
  GI50: > 10 µM (inactive)
[3]
  GI50: > 10 µM (inactive)
[4]
  GI50: > 10 µM (inactive)
[5]
  GI50: > 10 µM
[6]
  GI50: > 10 µM (inactive)
[7]
  GI50: > 10 µM (inactive)
[8]
  GI50: > 10 µM (inactive)
[9]
  GI50: > 10 µM (inactive)
[10]
  GI50: > 10 µM (inactive)
[11]
  GI50: > 10 µM (inactive)
[12]
  GI50: > 10 µM (inactive)
[13]
  GI50: > 10 µM (inactive)
[14]
  GI50: > 10 µM (inactive)
[15]
  GI50: > 10 µM (inactive)
[16]
  GI50: > 10 µM (inactive)
[17]
  GI50: > 10 µM (inactive)
[18]
  GI50: > 10 µM (inactive)
[19]
  GI50: > 10 µM (inactive)
[20]
  GI50: > 10 µM (inactive)
[21]
  GI50: > 10 µM (inactive)
[22]
  GI50: > 10 µM (inactive)
[23]
  GI50: > 10 µM (inactive)
[24]
  GI50: > 10 µM (inactive)
[25]
  GI50: > 10 µM (inactive)
[26]
  GI50: > 10 µM (inactive)
[27]
  GI50: > 10 µM (inactive)
[28]
  GI50: > 10 µM (inactive)
[29]
  GI50: > 10 µM (inactive)
[30]
  GI50: > 10 µM (inactive)
[31]
  GI50: > 10 µM (inactive)
[32]
  GI50: > 10 µM (inactive)
[33]
  GI50: > 10 µM (inactive)
[34]
  GI50: > 10 µM (inactive)
[35]
  GI50: > 10 µM (inactive)
[36]
  GI50: > 10 µM (inactive)
[37]
  GI50: > 10 µM (inactive)
[38]
  GI50: > 10 µM (inactive)
[39]
  GI50: > 10 µM (inactive)
[40]
  GI50: > 10 µM (inactive)
[41]
  GI50: > 10 µM (inactive)
[42]
  GI50: > 10 µM (inactive)
[43]
  GI50: > 10 µM (inactive)
[44]
  GI50: > 10 µM (inactive)
[45]
  GI50: > 10 µM (inactive)
[46]
  GI50: > 10 µM (inactive)
[47]
  GI50: > 10 µM (inactive)
[48]
  GI50: > 10 µM (inactive)
[49]
  GI50: > 10 µM (inactive)
[50]
  GI50: > 10 µM (inactive)
[51]
  GI50: > 10 µM (inactive)
[52]
  GI50: > 10 µM (inactive)
[53]
  GI50: > 10 µM (inactive)
[54]
  GI50: > 10 µM (inactive)
[55]
  GI50: > 10 µM (inactive)
[56]
  GI50: > 10 µM (inactive)

## Cc1c(/N=N/c2ccc(Cl)cc2)c(C)n(C2OC(CO)C(O)C(O)C2O)c(=S)c1C#N (configuration not stated)
[1]
  GI50: 23.4 µM (inactive)
[2]
  GI50: 19.3 µM (inactive)
[3]
  GI50: 23.7 µM (inactive)
[4]
  GI50: 30.1 µM (inactive)
[5]
  GI50: 23.8 µM
[6]
  GI50: 31.8 µM (inactive)
[57]
  GI50: 22.5 µM (inactive)
[7]
  GI50: 32.7 µM (inactive)
[8]
  GI50: 16.5 µM (inactive)
[9]
  GI50: 15.1 µM (inactive)
[10]
  GI50: 31.5 µM (inactive)
[11]
  GI50: 31.1 µM (inactive)
[12]
  GI50: 10.7 µM (inactive)
[13]
  GI50: 16 µM (inactive)
[14]
  GI50: 8.45 µM (inactive)
[15]
  GI50: 30.5 µM (inactive)
[16]
  GI50: 20.5 µM (inactive)
[17]
  GI50: 21.6 µM (inactive)
[18]
  GI50: 30 µM (inactive)
[19]
  GI50: 20.2 µM (inactive)
[20]
  GI50: 18.5 µM (inactive)
[21]
  GI50: 17.3 µM (inactive)
[22]
  GI50: 20 µM (inactive)
[23]
  GI50: 24.2 µM (inactive)
[24]
  GI50: 23.4 µM (inactive)
[25]
  GI50: 3.25 µM (inactive)
[26]
  GI50: 14.7 µM (inactive)
[27]
  GI50: 24.8 µM (inactive)
[28]
  GI50: 16.4 µM (inactive)
[29]
  GI50: 13.9 µM (inactive)
[30]
  GI50: 20.4 µM (inactive)
[31]
  GI50: 18.4 µM (inactive)
[32]
  GI50: > 100 µM (inactive)
[33]
  GI50: 12.8 µM (inactive)
[34]
  GI50: 16.7 µM (inactive)
[35]
  GI50: 22.1 µM (inactive)
[36]
  GI50: 64.1 µM (inactive)
[37]
  GI50: 25.3 µM (inactive)
[38]
  GI50: 19 µM (inactive)
[39]
  GI50: 25.8 µM (inactive)
[40]
  GI50: 28.6 µM (inactive)
[42]
  GI50: 28 µM (inactive)
[43]
  GI50: 19.6 µM (inactive)
[44]
  GI50: > 100 µM (inactive)
[45]
  GI50: 21.8 µM (inactive)
[46]
  GI50: 18.1 µM (inactive)
[47]
  GI50: 37.4 µM (inactive)
[48]
  GI50: 15.1 µM (inactive)
[49]
  GI50: 23.4 µM (inactive)
[50]
  GI50: 15.5 µM (inactive)
[51]
  GI50: 32.7 µM (inactive)
[52]
  GI50: 28.6 µM (inactive)
[53]
  GI50: 18.2 µM (inactive)
[54]
  GI50: 18.5 µM (inactive)
[55]
  GI50: 22 µM (inactive)
[56]
  GI50: 20 µM (inactive)
